Assay results published in patent US10703746B2, “Mutant IDH1 inhibitors useful for treating cancer” (THE UNITED STATES OF AMERICA, AS REPRESENTED BY THE …, priority 2014, dated 2020).

Legend:
IDH1 R132C = IDH1 R132C (Homo sapiens, UniProt O75874, R132C); assay: IDH1 R132C enzymatic assay (NADPH depletion coupled to diaphorase/resazurin); format: biochemical
In short: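 NADPH depletion, read via diaphorase/resazurin coupling, after adding substrate at 0.6 mM α-KG and 0.012 mM NADPH. Beforehand, 0.00032 mg/mL enzyme sat with compound 30 min at room temperature in pH 6.5 potassium phosphate buffer with MgCl2, glycerol and BSA.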

IDH1 R132H = IDH1 R132H (Homo sapiens, UniProt O75874, R132H); assay: IDH1 R132H enzymatic assay (NADPH depletion coupled to diaphorase/resazurin); format: biochemical
[1] = IDH1 R132C enzymatic inhibition, IC50 class
[2] = IDH1 R132H enzymatic inhibition, IC50 class
[3] = enzymatic inhibition, IDH1 R132C
[4] = enzymatic inhibition, IDH1 R132H

Chain of IDH1 R132C (O75874 whole entry R132C): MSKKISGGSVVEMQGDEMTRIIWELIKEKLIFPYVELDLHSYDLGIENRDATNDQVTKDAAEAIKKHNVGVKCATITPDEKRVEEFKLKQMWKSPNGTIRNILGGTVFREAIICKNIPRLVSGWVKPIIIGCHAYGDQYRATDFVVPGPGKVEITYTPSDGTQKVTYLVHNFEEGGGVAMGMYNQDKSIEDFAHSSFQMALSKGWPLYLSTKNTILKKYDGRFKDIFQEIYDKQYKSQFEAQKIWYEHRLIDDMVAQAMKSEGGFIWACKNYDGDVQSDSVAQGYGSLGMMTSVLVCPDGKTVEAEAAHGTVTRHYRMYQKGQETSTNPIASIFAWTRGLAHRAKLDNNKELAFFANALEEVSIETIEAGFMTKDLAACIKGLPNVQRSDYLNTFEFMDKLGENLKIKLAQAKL
Chain of IDH1 R132H (O75874 whole entry R132H): as the sequence (O75874 whole entry R132C) above, with C132H counted along it

SMILES | IC50 (IDH1 R132C; [1]) [nM] | IC50 (IDH1 R132H; [2]) [nM] | IC50 (IDH1 R132C; [3]) [nM] | IC50 (IDH1 R132H; [4]) [nM]
CCc1cccc(CC)c1-n1c(C)c(C(=O)NC2CCCC(O)C2)cc(-c2nc(-c3ccc(Cl)cc3)cs2)c1=O (stereo not drawn) [Compound 18] | 1000 to 5000 | 5000 to 20000 | – | –
CCc1cccc(CC)c1-n1c(C(C)C)c(C(=O)N2CCNC(C(=O)OC)C2)cc(-c2nc(-c3ccc(Cl)cc3)cs2)c1=O (stereo not drawn) [Compound 31] | 300 to 1000 | 1000 to 5000 | – | –
CCc1cccc(CC)c1-n1c(CC(C)C)c(C(=O)N2CCNCC2)cc(-c2nc(-c3ccc(Cl)c(OC)c3)c(C)s2)c1=O [Compound 633] | 300 to 1000 | 300 to 1000 | – | –
CCc1cccc(CC)c1-n1c(CC(C)C)c(C(=O)NC[C@@H](C)O)cc(-c2nc(-c3ccc(Cl)cc3)cs2)c1=O [Compound 276] | < 300 | 300 to 1000 | – | –
CCc1cccc(OC(C)C)c1-n1c(C=C(C)C)c(C(=O)N2CCNCC2)cc(-c2nc(-c3ccc(Cl)cc3)cs2)c1=O [Compound 508] | – | – | < 300 | < 300
CCOc1ncc(F)cc1-n1c(C=C(C)C)c(C(=O)N2CCNCC2)cc(-c2nc(-c3ccc(C(F)(F)F)nc3)cs2)c1=O [Compound 534] | – | – | < 300 | < 300
CCc1cccc(CC)c1-n1c(CC(C)C)c(C(=O)N2CC(C(=O)OC)NCC2C)cc(-c2nc(-c3ccc(Cl)cc3)cs2)c1=O (stereo not drawn) [Compound 113] | 300 to 1000 | 1000 to 5000 | – | –
CCOc1ncc(C)cc1-n1c(C=C(C)C)c(C(=O)N2CCNCC2)cc(-c2nc(-c3ccc(C(F)(F)F)nc3)cs2)c1=O [Compound 639] | 300 to 1000 | < 300 | – | –
CCOc1ccc(Cl)cc1-n1c(C=C(C)C)c(C(=O)N2CCNCC2)cc(-c2nc(-c3ccc(Cl)cc3)cs2)c1=O [Compound 463] | – | – | < 300 | < 300
CCc1cccc(CC)c1-n1c(C(C)C)c(C(=O)NC[C@@H](C)O)cc(-c2nc(-c3ccc(Cl)cc3)cs2)c1=O [Compound 101] | 300 to 1000 | 1000 to 5000 | – | –
CCOc1ccc(Cl)c(-n2c(C=C(C)C)c(C(=O)N3CCNCC3)cc(-c3nc(-c4ccc(Cl)cc4)cs3)c2=O)c1 [Compound 354] | < 300 | < 300 | – | –
COc1ccc(OC)c(-n2c3c(cc(-c4cc(-c5ccccc5)[nH]n4)c2=O)C(=O)CC(C)(C)C3)c1 [Compound 294] | 5000 to 20000 | > 20000 | – | –
CCc1cccc(CC)c1-n1c(CC(C)C)c(C(=O)N2CCNC(C)(C)C2)cc(-c2nc(-c3ccc(Cl)cc3)cs2)c1=O [Compound 70] | < 300 | 300 to 1000 | – | –
CCc1cccc(CC)c1-n1c(C)c(C(=O)N2CCC(C(=O)O)CC2)cc(-c2nc(-c3ccc(Cl)cc3)cs2)c1=O [Compound 109] | 5000 to 20000 | 1000 to 5000 | – | –
CCc1cccc(CC)c1-n1c(CC(C)C)c(C(=O)N2CCNCC2)cc(-c2nc(-c3ccc(Cl)cc3)c(Cl)s2)c1=O [Compound 662] | < 300 | 300 to 1000 | – | –
COc1ccc(C)cc1-n1c(C=C(C)C)c(C(=O)N2CCNCC2)cc(-c2nc(-c3ccc(Cl)cc3)cs2)c1=O [Compound 438] | – | – | < 300 | < 300

SMILES | IC50 (IDH1 R132C; [1]) [nM] | IC50 (IDH1 R132H; [2]) [nM] | IC50 (IDH1 R132C; [3]) [nM] | IC50 (IDH1 R132H; [4]) [nM]
CCc1cccc(CC)c1-n1c(CC2CCOC2)c(C(=O)N2CCNCC2)cc(-c2nc(-c3ccc(Cl)cc3)cs2)c1=O (stereo not drawn) [Compound 611] | – | – | < 300 | < 300
CCc1cccc(CC)c1-n1c(C=C(C)C)c(C(=O)N2CCNCC2C)cc(-c2nc(-c3ccc(Cl)cc3)cs2)c1=O (stereo not drawn) [Compound 631] | < 300 | < 300 | – | –
CCCCc1ccc(-c2nc(-c3cc(C(=O)N4CCNCC4)c(CC(C)C)n(-c4c(CC)cccc4CC)c3=O)sc2C)cc1 [Compound 44] | 1000 to 5000 | 1000 to 5000 | – | –
CC(C)=Cc1c(C(=O)N2CCNCC2)cc(-c2nc(-c3ccc(Cl)cc3)cs2)c(=O)n1-c1cc(Cl)cnc1OC(C)C [Compound 602] | – | – | < 300 | < 300
CCc1cccc(CC)c1-n1c(CC(C)C)c(C(=O)NC[C@H](N)C(=O)O)cc(-c2nc(-c3ccc(Cl)cc3)cs2)c1=O [Compound 221] | 300 to 1000 | 1000 to 5000 | – | –
COc1ccc(Cl)c(-n2c(C=C(C)C)c(C(=O)N3CCNCC3)cc(-c3ccn(-c4ccc(Cl)cc4)n3)c2=O)c1 [Compound 389] | 300 to 1000 | < 300 | – | –
CCc1cccc(CC)c1-n1c(C=C(C)C)c(C(=O)N(C)C2CCNCC2)cc(-c2nc(-c3ccc(Cl)cc3)cs2)c1=O [Compound 523] | – | – | < 300 | < 300
CN1CCN(Cc2ccc(-n3c4c(cc(-c5nc(-c6ccc(Cl)cc6)cs5)c3=O)C(=O)CCC4)cc2)CC1 [Compound 360] | > 20000 | > 20000 | – | –
CCc1ccc(F)cc1-n1c(C=C(C)C)c(C(=O)N2CCNCC2)cc(-c2nc(-c3ccc(Cl)cc3)cs2)c1=O [Compound 352] | < 300 | < 300 | – | –
COc1ccc(OC)c(-n2c3c(cc(-c4ccc(-c5ccccc5)cc4)c2=O)C(=O)CC(C)(C)C3)c1 [Compound 185] | > 20000 | > 20000 | – | –
COc1ccc(OC)c(-n2c3c(cc(-c4nc(C5CCCCC5)cs4)c2=O)C(=O)CC(C)(C)C3)c1 [Compound 69] | 1000 to 5000 | 1000 to 5000 | – | –
CCc1cccc(CC)c1-n1c(CC(C)C)c(C(=O)N2CCNCC2)cc(-c2nc(-c3ccc(C(F)(F)F)cc3)c(C)s2)c1=O [Compound 210] | < 300 | 300 to 1000 | – | –
CCc1cccc(CC)c1-n1c(CC(C)C)c(C(=O)N2CCN[C@@H](C)C2)cc(-c2nc(-c3ccc(Cl)cc3)cs2)c1=O [Compound 141] | < 300 | 300 to 1000 | – | –
CCc1cccc(CC)c1-n1c(C)c(C(=O)N2CCCC2C(=O)O)cc(-c2nc(-c3ccc(Cl)cc3)cs2)c1=O (stereo not drawn) [Compound 258] | 1000 to 5000 | 1000 to 5000 | – | –
CCc1cccc(CC)c1-n1c(CC(C)C)c(C(=O)N2CCNCC2)cc(-c2nc(-c3ccc(CN4CCOCC4)cc3)c(C)s2)c1=O [Compound 238] | 5000 to 20000 | 5000 to 20000 | – | –
CCc1cccc(CC)c1-n1c(CC(C)C)c(C(=O)N2CCNCC2)cc(-c2nc(-c3ccc(C(=O)NC4CCCC4)cc3)c(C)s2)c1=O [Compound 188] | 5000 to 20000 | 5000 to 20000 | – | –

The next lines start with the values.

IC50 (IDH1 R132C; [1]) [nM] | IC50 (IDH1 R132H; [2]) [nM] | IC50 (IDH1 R132C; [3]) [nM] | IC50 (IDH1 R132H; [4]) [nM] | SMILES
> 20000 | > 20000 | – | – | COc1ccc(OC)c(-n2c3c(cc(-c4ncc(-c5ccc(Cl)cc5)s4)c2=O)C(=O)CC(C)(C)C3)c1 [Compound 266]
1000 to 5000 | 1000 to 5000 | – | – | CCc1cccc(CC)c1-n1c(C(C)C)c(C(=O)OC)cc(-c2nc(-c3ccc(Cl)cc3)cs2)c1=O [Compound 125]
300 to 1000 | 1000 to 5000 | – | – | CCc1cccc(CC)c1-n1c2c(cc(-c3nc(-c4ccc(Cl)cc4)cs3)c1=O)C(=O)N(C)C2C(C)C (stereo not drawn) [Compound 338]
300 to 1000 | > 20000 | – | – | CC1(C)CC(=O)c2cc(-c3nc(-c4ccc(Cl)cc4)cs3)c(=O)n(C3CCCc4ccccc43)c2C1 (stereo not drawn) [Compound 19]
> 20000 | > 20000 | – | – | COc1cc(C(=O)O)ccc1-n1c2c(cc(-c3nc(-c4ccc(Cl)cc4)cs3)c1=O)C(=O)CC(C)(C)C2 [Compound 136]
– | – | 5000 to 20000 | > 20000 | COc1ccncc1-n1c2c(cc(-c3nc(-c4ccc(Cl)cc4)cs3)c1=O)C(=O)CC(C)(C)C2 [Compound 436]
– | – | 1000 to 5000 | 1000 to 5000 | COc1cccc(OC)c1-n1c2c(cc(-c3nc(-c4ccc(Cl)cc4)cs3)c1=O)C(=O)CCC2 [Compound 414]
5000 to 20000 | > 20000 | – | – | COc1ccc(OC)c(-n2c3c(cc(-c4nc(-c5ccc(Cl)cc5)cs4)c2=O)C(=O)N(C(=O)OC(C)(C)C)CC3)c1 [Compound 23]
– | – | 5000 to 20000 | 1000 to 5000 | CN1CCN(Cc2ccc(-n3c4c(cc(-c5nc(-c6ccc(Cl)cc6)cs5)c3=O)C(=O)CC(C)(C)C4)cc2)CC1 [Compound 498]
1000 to 5000 | 1000 to 5000 | – | – | COc1ccc(OC)c(-n2c3c(cc(-c4nc(-c5ccc(Cl)cc5)cs4)c2=O)C(=O)CN(C)C3)c1 [Compound 253]
1000 to 5000 | 1000 to 5000 | – | – | CCc1cccc(CC)c1-n1c2c(cc(-c3nc(-c4cccc(F)c4)cs3)c1=O)C(=O)CC(C)(C)C2 [Compound 209]
1000 to 5000 | 1000 to 5000 | – | – | Cc1noc(-n2c3c(cc(-c4nc(-c5ccc(Cl)cc5)cs4)c2=O)C(=O)CC(C)(C)C3)c1C [Compound 277]
1000 to 5000 | 1000 to 5000 | – | – | CNc1ccccc1-n1c2c(cc(-c3nc(-c4ccc(Cl)cc4)cs3)c1=O)C(=O)CC(C)(C)C2 [Compound 42]
300 to 1000 | 1000 to 5000 | – | – | CCc1cccc(CC)c1-n1c(C)c(C(=O)N2CCN(C)CC2)cc(-c2nc(-c3ccc(Cl)cc3)cs2)c1=O [Compound 53]
1000 to 5000 | 1000 to 5000 | – | – | COc1ccccc1-n1c2c(cc(-c3nc(-c4ccc(Cl)cc4)cs3)c1=O)C(=O)CC(C)(C)C2 [Compound 12]
300 to 1000 | 300 to 1000 | – | – | COC(=O)c1ccsc1-n1c2c(cc(-c3nc(-c4ccc(Cl)cc4)cs3)c1=O)C(=O)CC(C)(C)C2 [Compound 652]
1000 to 5000 | 1000 to 5000 | – | – | COc1cccc(OC)c1-n1c2c(cc(-c3nc(-c4ccc(Cl)cc4)cs3)c1=O)C(=O)CC(C)(C)C2 [Compound 59]
– | – | > 20000 | > 20000 | COc1ccc(CN2CCN(C)CC2)cc1-n1c2c(cc(-c3nc(-c4ccc(Cl)cc4)cs3)c1=O)C(=O)CCC2 [Compound 527]
5000 to 20000 | > 20000 | – | – | Cc1ccc(C(=O)O)cc1-n1c2c(cc(-c3nc(-c4ccc(Cl)cc4)cs3)c1=O)C(=O)CC(C)(C)C2 [Compound 166]
300 to 1000 | 300 to 1000 | – | – | CCc1cccc(CC)c1-n1c(CC)c(C(=O)NC)cc(-c2nc(-c3ccc(Cl)cc3)cs2)c1=O [Compound 293]
5000 to 20000 | > 20000 | – | – | CCc1cccc(CC)c1-n1c2c(cc(-c3nc(-c4ccc(Cl)cc4)cs3)c1=O)C(=O)OC2 [Compound 194]
1000 to 5000 | 1000 to 5000 | – | – | CCc1cccc(C)c1-n1c2c(cc(-c3nc(-c4ccc(Cl)cc4)cs3)c1=O)C(=O)CCC2 [Compound 628]
